Measured values published in US7763585B2, “Methods for inhibiting tumor cell proliferation” (priority 2003, dated 2010).

Assays:
[1] = tested on: Stat3; assay: EMSA of nuclear extracts from treated cells with constitutively-activated Stat3; assay type: cell-based, mouse and human; settings: Src-transformed fibroblasts and human tumor cells, FIG. 3
Protocol: FIG. 3 is a photograph showing the evaluation of effects of platinum complexes on Stat3 activation analyzed by EMSA. Nuclear extracts prepared from malignant cells that contain constitutively-activated Stat3 and treated with platinum complexes for the indicated times were analyzed by EMSA using hSIE oligonucleotide probe. Extracts were prepared from v-Src-transformed NIH3T3/v-Src; human breast carcinoma MDA-MB-231; MDA-MB-435; and […]. Position of Stat3:DNA complex in gel is shown.
Nuclear extracts were prepared from cell lines and used for EMSA as previously described (Turkson et al., 1998; Yu et al., 1995; Garcia et al., 1997). In some cases, cells were pre-treated with platinum complexes for the indicated times prior to harvesting. Where cells were stimulated with EGF (6 ng/ml), duration of treatment was 15 min. Nuclear extracts were pre-incubated with compounds for 30 min at room temperature prior to incubation with radiolabeled probe. The ^32P-radiolabeled oligonucleotide probes used are hSIE (high affinity sis-inducible element, m67 variant, 5′-[…]-3′) (SEQ ID NO:1) that binds both Stat1 and Stat3 (Garcia et al., 1997; Wagner et al., 1990), MGFe (mammary gland factor element from the bovine β-casein gene promoter, 5′-[…]-3′) (SEQ ID NO:2) that binds Stat1 and Stat5 (Gouilleux et al., 1995; Seidel et al., 1995), the NF-κB binding oligo (5′-[…]-3′) (SEQ ID NO:3), and the oligonucleotide sequence from the DHFR promoter that binds E2F1.
The effects of platinum complexes on persistent activation of Stat3 in Src-transformed fibroblasts and human tumor cells were investigated. […] These studies were then extended to evaluate the effects of the platinum complexes on Stat3 transcriptional activity.

[2] = tested on: Stat3-dependent luciferase reporter (pLucTKS3); assay: Stat3-dependent firefly luciferase reporter in NIH3T3/v-Src/pLucTKS3; assay type: cell-based, mouse; settings: NIH3T3/v-Src/pLucTKS3, FIG. 4
Protocol: FIGS. 4A-B show inhibition of Stat3-mediated gene expression in intact cells by platinum complexes. v-Src-transformed mouse fibroblasts that stably express Stat3-dependent (NIH3T3/v-Src/pLucTKS3) and Stat3-independent (NIH3T3/v-Src/pRLSRE) luciferase reporters were treated with platinum complexes for the indicated times. Cytosolic extracts were then prepared from cells for Stat3-dependent firefly luciferase activity (FIG. 4A) and Stat3-independent renilla luciferase measurements (FIG. 4B). Values are the means and S.D. of five independent assays. […]
Cytosolic lysates preparation from fibroblasts for luciferase assays or from baculovirus-infected Sf-9 insect cells have been previously described (Turkson et al., 1998; Turkson et al., 2001; Turkson et al., 1999; Zhang et al., 2000). Luciferase assays were performed as outlined in the supplier's (Promega) manual and measured with a luminometer. […]

[3] = tested on: human breast and non-small cell lung cancer cell lines; assay: Cell proliferation ([3H]-thymidine incorporation) of human breast and non-small cell lung cancer cell lines; assay type: cell-based; settings: FIG. 6
From the text: (§1) FIGS. 6A and 6B show the effects of platinum complexes on cell proliferation and viability. […] Values are the mean and S.D. of 3-4 independent determinations.
(§2) The effects of platinum complexes on cell proliferation measured by [^3H]-thymidine incorporation were investigated.

[4] = tested on: normal mouse fibroblasts; assay: Cell proliferation ([3H]-thymidine incorporation) of normal mouse fibroblasts; assay type: cell-based; settings: FIG. 6; reduction in growth rate but not growth inhibitory
Protocol: as §1
(§3) Proliferating cells were counted by phase-contrast microscopy for viable cells (using trypan blue exclusion. TUNEL staining was carried according to supplier's instructions to detect apoptotic cells. Cells (NIH3T3 or NIH3T3/v-Src) were first treated with or without compounds 24-48 h prior to staining.
as §2

[5] = tested on: Src-transformed NIH3T3 fibroblasts; assay: TUNEL staining for apoptosis, Src-transformed NIH3T3 fibroblasts; assay type: cell-based, mouse; settings: 48 h treatment, FIG. 7
Protocol: (§4) FIG. 7 is a photograph showing induction of apoptosis by platinum complexes. Normal NIH3T3 fibroblasts and their v-Src-transformed counterparts were treated with platinum complexes for 48 h and analyzed for evidence of DNA damage using TUNEL staining kit.
as §3
(§5) Studies have established a critical role for constitutive Stat3 signaling in the survival of transformed and tumor cells (Catlett-Falcone et al., 1999a; Grandis et al., 2000a; Epling-Burnette et al., 2001; Bowman et al., 2000b; Grandis et al., 2000b; Horiguchi et al., 2002). Effects of the subject platinum compounds on viability and survival of malignant cells were evaluated. To determine whether inhibition of persistently-active Stat3 by the subject compounds results in apoptosis, Src-transformed and normal mouse fibroblasts were treated with the subject platinum compounds and subjected to TUNEL staining for evidence of apoptosis.

[6] = tested on: normal NIH3T3 fibroblasts; assay: TUNEL staining for apoptosis, normal fibroblasts; assay type: cell-based, mouse; settings: 48 h treatment, FIG. 7
Protocol: as §4, §3, §5

SMILES | Inhibition of constitutive Stat3 activation in treated cells (EMSA of nuclear extracts) [1] | Stat3-dependent induction of luciferase reporter [2] | Growth of human breast and non-small cell lung cancer cell lines ([3H]-thymidine incorporation) [3] | Growth of normal mouse fibroblasts ([3H]-thymidine incorporation) [4] | Apoptosis (TUNEL staining) in Src-transformed NIH3T3 fibroblasts [5] | Apoptosis (TUNEL staining) in normal fibroblasts [6]
[NH2][Pt]([NH2])([Cl])([Cl])([Cl])[N+](=O)[O-] [ISS CPA-7] | strong inhibition | significantly suppress | strongly inhibited | marginal effect | strong apoptosis | marginal degree of apoptosis
O=[N+]([O-])[Pt]1([Cl])([Cl])([Cl])[NH]CC[NH]1 [ISS CPA-1] | strong inhibition | significantly suppress | strongly inhibited | marginal effect | strong apoptosis | marginal degree of apoptosis
